Measurements published in US12527325B2, “Pesticidally active diazine-amide compounds” (SYNGENTA CROP PROTECTION AG, priority 2019, dated 2026).

What was measured:
Assay type in all cases: in vivo
Chilo suppressalis = assay: Example B4: Chilo suppressalis (Striped Rice Stemborer); conditions: 144 h, application rate of 200 ppm, artificial diet, L2 larvae, 6 days after infestation, read-out: control in at least one of the three categories (mortality, anti-feedant or growth inhibition)
Outline: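 Artificial diet was treated with aqueous dilutions made from 10'000 ppm DMSO stocks, dried, then infested with L2 larvae at 6–8 per well. Mortality, antifeedant effect and growth inhibition were assessed against untreated samples 6 days after infestation.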

Plutella xylostella [1] = assay: Example B5: Plutella xylostella (Diamond Back Moth); conditions: 192 h, application rate of 200 ppm, 24-well artificial diet, eggs, 8 days after infestation, read-out: control in at least one of the two categories (mortality or growth inhibition)
Description: Example B5: Plutella xylostella (Diamond Back Moth)
24-well microtiter plates with artificial diet were treated with aqueous test solutions prepared from 10′000 ppm DMSO stock solutions by pipetting. After drying, Plutella eggs were pipetted through a plastic stencil onto a gel blotting paper and the plate was closed with it. The samples were assessed for mortality and growth inhibition in comparison to untreated samples 8 days after infestation.

Spodoptera littoralis = assay: Example B9: Spodoptera littoralis (Egyptian Cotton Leaf Worm), cotton leaf disc spray; conditions: foliar, 72 h, application rate of 200 ppm, sprayed cotton leaf discs, L1 larvae, 3 days after infestation, read-out: control in at least one of the three categories (mortality, anti-feedant or growth inhibition)
Myzus persicae [2] = assay: Example B6: Myzus persicae (Green Peach Aphid): Feeding/Contact Activity; conditions: foliar, 144 h, application rate of 200 ppm, sprayed sunflower leaf discs, aphid population of mixed ages, 6 days after infestation
Description: Example B6: Myzus persicae (Green Peach Aphid): Feeding/Contact Activity
Sunflower leaf discs were placed onto agar in a 24-well microtiter plate and sprayed with aqueous test solutions prepared from 10′000 ppm DMSO stock solutions. After drying, the leaf discs were infested with an aphid population of mixed ages. The samples were assessed for mortality 6 days after infestation.

Myzus persicae [3] = assay: Example B7: Myzus persicae (Green Peach Aphid): Systemic Activity; conditions: 144 h, test rate of 24 ppm, roots of pea seedlings in test solution, 6 days
Description: Example B7: Myzus persicae (Green Peach Aphid): Systemic Activity
Roots of pea seedlings infested with an aphid population of mixed ages were placed directly into aqueous test solutions prepared from 10′000 DMSO stock solutions. The samples were assessed for mortality 6 days after placing seedlings into test solutions.

Myzus persicae [4] = assay: Example B8: Myzus persicae (Green Peach Aphid): Intrinsic Activity; conditions: 120 h, test rate of 12 ppm, 24-well sucrose solution under Parafilm, 5 days after infestation
Excerpt: Example B8: Myzus persicae (Green Peach Aphid): Intrinsic Activity
Test compounds prepared from 10′000 ppm DMSO stock solutions were applied by pipette into 24-well microtiter plates and mixed with sucrose solution. The plates were closed with a stretched Parafilm. A plastic stencil with 24 holes was placed onto the plate and infested pea seedlings were placed directly on the Parafilm. The infested plate was closed with a gel blotting paper and another plastic stencil and then turned upside down. The samples were assessed for mortality 5 days after infestation.

[5] = system: Frankliniella occidentalis; assay: Example B3: Frankliniella occidentalis (Western Flower Thrips): Feeding/Contact Activity; conditions: foliar, 168 h, application rate of 200 ppm, sprayed sunflower leaf discs, population of mixed ages, 7 days after infestation
Description: Example B3: Frankliniella occidentalis (Western Flower Thrips): Feeding/Contact Activity
Sunflower leaf discs were placed on agar in 24-well microtiter plates and sprayed with aqueous test solutions prepared from […] stock solutions. After drying the leaf discs were infested with a Frankliniella population of mixed ages. The samples were assessed for mortality 7 days after infestation.

Euschistus heros = assay: Example B2: Euschistus heros (Neotropical Brown Stink Bug); conditions: 120 h, application rate of 200 ppm, sprayed soybean leaves, N2 nymphs, 5 days after infestation, read-out: control in at least one of the two categories (mortality or growth inhibition)
Description: Example B2: Euschistus heros (Neotropical Brown Stink Bug)
Soybean leaves on agar in 24-well microtiter plates were sprayed with aqueous test solutions prepared from 10′000 ppm DMSO stock solutions. After drying the leaves were infested with N2 nymphs. The samples were assessed for mortality and growth inhibition in comparison to untreated samples 5 days after infestation.

Plutella xylostella [6] = assay: Example B12: Plutella xylostella (Diamondback Moth), 96-well artificial diet; conditions: 216 h, application rate of 500 ppm, eggs, 9 days after infestation
Description: Example B12: Plutella xylostella (Diamondback Moth)
96-well microtiter plates containing artificial diet were treated with aqueous test solutions, prepared from 10′000 ppm DMSO stock solutions, by a liquid handling robot. After drying, eggs (˜30 per well) were infested onto a netted lid which was suspended above the diet. The eggs hatch and L1 larvae move down to the diet. The samples were assessed for mortality 9 days after infestation.

Diabrotica balteata = assay: Example B1: Diabrotica balteata (Corn Root Worm); conditions: 96 h, application rate of 200 ppm, sprayed maize sprouts, L2 larvae, 4 days after infestation, read-out: control in at least one of the two categories (mortality or growth inhibition)
Description: Example B1: Diabrotica balteata (Corn Root Worm)
Maize sprouts placed onto an agar layer in 24-well microtiter plates were treated with aqueous test solutions prepared from 10′000 ppm DMSO stock solutions by spraying. After drying, the plates were infested with L2 larvae (6 to 10 per well). The samples were assessed for mortality and growth inhibition in comparison to untreated samples 4 days after infestation.

Myzus persicae [7] = assay: Example B11: Myzus persicae (Green Peach Aphid), 96-well sucrose solution; conditions: 120 h, application rate of 50 ppm, 96-well sucrose solution under Parafilm, 5 days after infestation
Excerpt: Example B11: Myzus persicae (Green Peach Aphid)
Test compounds prepared from 10′000 ppm DMSO stock solutions were applied by a liquid handling robot into 96-well microtiter plates and mixed with a sucrose solution. Parafilm was stretched over the 96-well microtiter plate and a plastic stencil with 96 holes was placed onto the plate. Aphids were sieved into the wells directly onto the Parafilm. The infested plates were closed with a gel blotting card and a second plastic stencil and then turned upside down. The samples were assessed for mortality 5 days after infestation.

CC(NC(=O)c1cc(OC(F)F)cc(S(=O)(=O)C(F)(F)F)c1)c1nccnc1-c1ncccn1 (stereo not drawn) [P45, 3-(difluoromethoxy)-N-[1-(3-pyrimidin-2-ylpyrazin-2-yl)ethyl]-5-(trifluoromethylsulfonyl) benzamide]
≥ 80%: percent control (mortality, anti-feedant effect or growth inhibition) at 200 ppm (Chilo suppressalis) | percent control (mortality or growth inhibition) at 200 ppm (Plutella xylostella [1]) | percent control (mortality, anti-feedant effect or growth inhibition) at 200 ppm (Spodoptera littoralis) | mortality at 200 ppm (Myzus persicae [2])

CC(NC(=O)c1cc(C(F)(F)F)cc(S(=O)(=O)C2CC2)c1)c1nccnc1-c1ncccn1 (stereo not drawn) [P10, 3-cyclopropylsulfonyl-N-[1-(3-pyrimidin-2-ylpyrazin-2-yl)ethyl]-5-(trifluoromethyl) benzamide]
≥ 80%: percent control (mortality, anti-feedant effect or growth inhibition) at 200 ppm (Chilo suppressalis) | mortality at 24 ppm (Myzus persicae [3]) | percent control (mortality or growth inhibition) at 200 ppm (Plutella xylostella [1]) | mortality at 12 ppm (Myzus persicae [4]) | mortality at 200 ppm [5] | percent control (mortality or growth inhibition) at 200 ppm (Euschistus heros)

CC(NC(=O)c1cc(C(F)(F)F)cc(C2(C#N)CC2)c1)c1nccnc1-c1ncccn1 (stereo not drawn) [P25, 3-(1-cyanocyclopropyl)-N-[1-(3-pyrimidin-2-ylpyrazin-2-yl)ethyl]-5-(trifluoromethyl)benzamide]
≥ 80%: percent control (mortality, anti-feedant effect or growth inhibition) at 200 ppm (Chilo suppressalis) | mortality at 24 ppm (Myzus persicae [3]) | mortality at 500 ppm (Plutella xylostella [6]) | percent control (mortality or growth inhibition) at 200 ppm (Plutella xylostella [1]) | mortality at 12 ppm (Myzus persicae [4]) | percent control (mortality, anti-feedant effect or growth inhibition) at 200 ppm (Spodoptera littoralis) | percent control (mortality or growth inhibition) at 200 ppm (Diabrotica balteata) | percent control (mortality or growth inhibition) at 200 ppm (Euschistus heros) | mortality at 50 ppm (Myzus persicae [7])

CC(NC(=O)c1cc(C(F)(F)F)nc(C2(C#N)CC2)c1)c1nccnc1-c1ccccn1 (stereo not drawn) [P26, 2-(1-cyanocyclopropyl)-N-[1-[3-(2-pyridyl)pyrazin-2-yl]ethyl]-6-(trifluoromethyl)pyridine-4-carboxamide]
≥ 80%: percent control (mortality, anti-feedant effect or growth inhibition) at 200 ppm (Chilo suppressalis) | mortality at 500 ppm (Plutella xylostella [6]) | percent control (mortality or growth inhibition) at 200 ppm (Plutella xylostella [1]) | percent control (mortality, anti-feedant effect or growth inhibition) at 200 ppm (Spodoptera littoralis) | percent control (mortality or growth inhibition) at 200 ppm (Diabrotica balteata) | mortality at 50 ppm (Myzus persicae [7])

CC(NC(=O)c1cc(OC(F)(F)F)cc(C2(C#N)CC2)c1)c1nccnc1-c1ncccn1 (stereo not drawn) [P46, 3-(1-cyanocyclopropyl)-N-[1-(3-pyrimidin-2-ylpyrazin-2-yl)ethyl]-5-(trifluoromethoxy) benzamide]
≥ 80%: percent control (mortality, anti-feedant effect or growth inhibition) at 200 ppm (Chilo suppressalis) | mortality at 24 ppm (Myzus persicae [3]) | percent control (mortality or growth inhibition) at 200 ppm (Plutella xylostella [1]) | mortality at 12 ppm (Myzus persicae [4]) | percent control (mortality, anti-feedant effect or growth inhibition) at 200 ppm (Spodoptera littoralis) | percent control (mortality or growth inhibition) at 200 ppm (Diabrotica balteata) | mortality at 200 ppm (Myzus persicae [2]) | percent control (mortality or growth inhibition) at 200 ppm (Euschistus heros)

CC(NC(=O)c1cc(C2CC2)nc(C(F)(F)F)c1)c1nccnc1-c1ncccn1 (stereo not drawn) [P31, 2-cyclopropyl-N-[1-(3-pyrimidin-2-ylpyrazin-2-yl)ethyl]-6-(trifluoromethyl)pyridine-4-carboxamide]
≥ 80%: percent control (mortality, anti-feedant effect or growth inhibition) at 200 ppm (Chilo suppressalis) | percent control (mortality or growth inhibition) at 200 ppm (Plutella xylostella [1]) | mortality at 12 ppm (Myzus persicae [4]) | percent control (mortality, anti-feedant effect or growth inhibition) at 200 ppm (Spodoptera littoralis) | mortality at 200 ppm [5] | percent control (mortality or growth inhibition) at 200 ppm (Diabrotica balteata) | percent control (mortality or growth inhibition) at 200 ppm (Euschistus heros)

CC(NC(=O)c1cc(OC(F)F)cc(C2(C#N)CC2)c1)c1nccnc1-c1ncccn1 (stereo not drawn) [P44, 3-(1-cyanocyclopropyl)-5-(difluoromethoxy)-N-[1-(3-pyrimidin-2-ylpyrazin-2-yl)ethyl]benzamide]
≥ 80%: percent control (mortality, anti-feedant effect or growth inhibition) at 200 ppm (Chilo suppressalis) | mortality at 24 ppm (Myzus persicae [3]) | percent control (mortality or growth inhibition) at 200 ppm (Plutella xylostella [1]) | mortality at 12 ppm (Myzus persicae [4]) | percent control (mortality, anti-feedant effect or growth inhibition) at 200 ppm (Spodoptera littoralis) | mortality at 200 ppm [5] | percent control (mortality or growth inhibition) at 200 ppm (Diabrotica balteata) | mortality at 200 ppm (Myzus persicae [2]) | percent control (mortality or growth inhibition) at 200 ppm (Euschistus heros)

CC(NC(=O)c1cc(C(F)(F)F)cc(S(=O)(=O)C(F)(F)F)c1)c1nccnc1-c1ncccn1 (stereo not drawn) [P19, N-[1-(3-pyrimidin-2-ylpyrazin-2-yl)ethyl]-3-(trifluoromethyl)-5-(trifluoromethylsulfonyl) benzamide]
≥ 80%: percent control (mortality, anti-feedant effect or growth inhibition) at 200 ppm (Chilo suppressalis) | mortality at 500 ppm (Plutella xylostella [6]) | percent control (mortality or growth inhibition) at 200 ppm (Plutella xylostella [1]) | mortality at 12 ppm (Myzus persicae [4]) | percent control (mortality, anti-feedant effect or growth inhibition) at 200 ppm (Spodoptera littoralis) | percent control (mortality or growth inhibition) at 200 ppm (Diabrotica balteata) | mortality at 50 ppm (Myzus persicae [7])

CC(NC(=O)c1cc(C(F)(F)F)nc(C2(C#N)CC2)c1)c1nccnc1-c1ncccn1 (stereo not drawn) [P32, 2-(1-cyanocyclopropyl)-N-[1-(3-pyrimidin-2-ylpyrazin-2-yl)ethyl]-6-(trifluoromethyl)pyridine-4-carboxamide]
≥ 80%: percent control (mortality, anti-feedant effect or growth inhibition) at 200 ppm (Chilo suppressalis) | percent control (mortality or growth inhibition) at 200 ppm (Plutella xylostella [1]) | mortality at 12 ppm (Myzus persicae [4]) | percent control (mortality, anti-feedant effect or growth inhibition) at 200 ppm (Spodoptera littoralis) | mortality at 200 ppm [5] | percent control (mortality or growth inhibition) at 200 ppm (Diabrotica balteata) | percent control (mortality or growth inhibition) at 200 ppm (Euschistus heros)
